Results from patent US7071188B2 (priority 2001, dated 2006).

How the values were obtained:
Fusarium (FFUSARGRAMI) = experiment: Seed treatment test for field corn and sweet corn, in-furrow Fusarium inoculation (Example 1); format: in vivo, Fusarium on corn variety H-8874RR; conditions: rates gai/100 kg: Apron XL 3LS 1, Maxim XL 3.5, CGA-301940 2.5, CAPTAN 55 + Allegiance-FL 2
Description: (§1) Seed Treatment Test for Field Corn and Sweet Corn

[1] = system: natural disease pressure on corn variety N58-D1; experiment: Seed treatment test for field corn and sweet corn, no inoculation, natural disease pressure (Example 2); format: in vivo; conditions: rates gai/100 kg: Apron XL 3LS 1, Maxim XL 3.5, CGA-301940 2.5, CAPTAN 55 + Allegiance-FL 2
Description: as §1

CO/C=C(/C(=O)OC)c1ccccc1Oc1cc(Oc2ccccc2C#N)ncn1 [CGA-301940, Azoxystrobin]
Stand Count percent increase (27 DAP) (Fusarium (FFUSARGRAMI); 27 DAP, vs Check (inoculated)): −10.3%
Stand Count (No Plants/Plot) 27 DAP (Fusarium (FFUSARGRAMI); 27 DAP): 13.0b No Plants/Plot
% Vigor percent increase (47 DAP) (Fusarium (FFUSARGRAMI); 47 DAP, vs Check (inoculated)): 6.6%
Stand Count percent increase (47 DAP) (Fusarium (FFUSARGRAMI); 47 DAP, vs Check (inoculated)): 9.8%
% Vigor 47 DAP (Fusarium (FFUSARGRAMI); 47 DAP): 80.0a %
Stand Count (No Plants/Plot) 47 DAP (Fusarium (FFUSARGRAMI); 47 DAP): 42.3d No Plants/Plot
Stand Count percent increase (33 DAP) ([1]; 33 DAP, vs Check (non-inoculated)): 4.5%
Stand Count (No Plants/Plot) 33 DAP ([1]; 33 DAP): 46.5c No Plants/Plot
Stand Count percent increase (49 DAP) ([1]; 49 DAP, vs Check (non-inoculated)): 6.0%
Stand Count (No Plants/Plot) 49 DAP ([1]; 49 DAP): 52.8c No Plants/Plot
